Assay [1] concerns IL-1β release in THP-1-ASC-GFP cells after NLRP3 activation. Nature of the assay: IC50 determination of IL-1β release inhibition in THP-1-ASC-GFP cells. Conditions: THP1-ASC-GFP, read-out: IL-1β IC50 (nM) THP1 cells. Type of assay: cell-based. How it is done: Example 78: IC50 Determination of IL-1β Release Inhibition in THP-1-ASC-GFP Cells The compounds were tested for their ability to inhibit the IL-1β release in the THP-1-ASC-GFP cells after NLRP3 activation. THP1-ASC-GFP cells (Invivogen […] thawed following Invivogen's initial culture procedure. […] The growth medium was composed of RPM1640 medium (Gibco 32404-014), 10% heat inactivated (HI) serum (Gibco A3840102), Pen/Strep (Quality Biologics 118-089-721), 10 mM Hepes (Quality Biologics 118-089-721), 2 mM Glutamax (GIBCO 35050-061), 100 μg/mL normocin (Invivogen ant-nr), 100 μg/mL Zeocin (Invivogen ant-zn). The growth medium was freshly prepared once a week and sterile filtered. Assay medium consisted of RPMI 1640 medium, 10 mM Hepes, 2 mM Glutamax and Pen/Strep. To the assay medium, 1 μg/mL LPS (Invivogen tlrl-3pelps) was added. A cell suspension was prepared with assay medium and LPS at 1.25M cells per mL. With an electronic pipet, 80 μl of cell suspension was added to U bottom 96 well polystyrene plates (VWR 10062-902) leaving columns 1 and 2 empty. The plates were placed in the incubator for 4 hours. […] DMSO). An hour prior to the end of LPS incubation, a separate 96 deep well plate, Plate B, was prepared with 400 μL of assay media per well, then 2 μL of the stock DMSO solution from Plate A was added to each corresponding well. Plate B was covered to avoid media evaporation. In a 50 mL tube, a solution of nigericin in assay media at […] concentration was prepared. To a new 96 deep well plate, Plate C, 200 μL of this nigericin containing media was dispensed to each well and […] of the test compounds from Plate A to each corresponding well was added. Plate C was covered to avoid media evaporation. After 4 hours of priming, all the media from the LPS treated THP-1 cells in the initial U bottom plate was removed manually. To this plate of primed cells, 80 μL/well test compounds from Plate B was added in duplicate columns (5 compounds tested per plate). The plate was placed in an incubator for 30 min. […] The plate was placed back in the incubator for 1 hour. At the end of 1 hour, the supernatant from this test plate was transferred to a new 96 well V bottom polypropylene plate which was frozen immediately at -80° C. The plate was transferred to -20° C. the next day and awaiting further determination of cytokine IL-1β level. The release of IL-1β into the cell media was determined by MSD® Multi-Spot Assay System (V-Plex, IL-1B kit, […]-4). Following the manufacture's protocol and using the Alternate Protocol 3, Dilute-In-Plate protocol specifically, the level of IL-1β in the above collected supernatant plate was measured as electrochemiluminescent signals. Using MSD DISCOVERY WORKBENCH® analysis software, the signals were converted to the concentration of IL-1β in each well. The IC50 values of the compounds were calculated using the Graph Pad Prism software based on the […] concentration determined. The detection range of IL-1β using MSD kit was approximately […] (based on various lots of standards purchased from MSD).

In assay [2] the test system is IL-1β release in U937 cells after NLRP3 activation. Nature of the assay: IC50 determination of IL-1β release inhibition in U937 cells. Type of assay: cell-based. Conditions: Homo sapiens, read-out: IL-1β IC50 (nM) U937 cells. A digest of the protocol:
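PMA-differentiated U937 cells (90 h) were primed 5 h with 1 μg/mL LPS, pre-incubated 30 min with compound, then stimulated with nigericin for 1 h. Supernatant IL-1β was quantified by MSD electrochemiluminescence. IC50 was derived from IL-1β concentration, with duplicate wells per compound.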

Where [3] appears, read: THP-1-ASC-GFP cells, LPS priming 4 h, nigericin, average of at least three experiments.
Setting [4] is: U-937, PMA-differentiated U937 cells, LPS priming 5 h, nigericin, average of at least three experiments.

Structures are written as SMILES. Where two headings read alike, the source gives them in different places.

Consider `CC(C)NCc1coc([S@](=N)(=O)NC(=O)Nc2c3c(c(F)c4c2CCC4)CCC3)c1` (single isomer, unassigned) [Example 31], for which the half-inhibitory concentration (IC50) in assay [1] (setting [3]) and in assay [2] (setting [4]) was less than 5 nM each time.

As for `Cc1oc([S@@](=N)(=O)NC(=O)Nc2c3c(cc4c2CCC4)CCC3)cc1CNC(C)C` (single isomer, unassigned) [Example 26, formic acid], the IC50 in assay [1] (setting [3]) and in assay [2] (setting [4]) was 50 to 500 nM each time.

For `Cc1oc(S(=O)(=O)NC(=O)Nc2c3c(c(F)c4c2CCC4)CCC3)cc1CN1CCC[C@@H]1CO` [Example 45, (R)-N-((8-fluoro-1,2,3,5,6,7-hexahydro-s-indacen-4-yl)carbamoyl)-4-((2-(hydroxymethyl)pyrrolidin-1-yl)methyl)-5-methylfuran-2-sulfonamide], the results for the IC50 in assay [1] (setting [3]) and in assay [2] (setting [4]) were less than 5 nM and 5 to 50 nM, respectively.

For `CC(C)NCc1coc(S(=N)(=O)NC(=O)Nc2c3c(cc4c2CCC4)CCC3)c1` (centres unmarked) [Example 23, N-((1,2,3,5,6,7-hexahydro-s-indacen-4-yl)carbamoyl)-4-((isopropylamino)methyl)furan-2-sulfonimidamide], the IC50 is less than 5 nM in assay [1] (4 h) and less than 5 nM in assay [2] (U-937, 5 h).

For the molecule `Cc1oc(S(=N)(=O)NC(=O)Nc2c3c(cc4c2CCC4)CCC3)cc1CN(C)CC1(O)CCC1` (centres unmarked) [Example 12, N-((1,2,3,5,6,7-hexahydro-s-indacen-4-yl)carbamoyl)-4-((((1-hydroxycyclobutyl)methyl)(methyl)amino)methyl)-5-methylfuran-2-sulfonimidamide], the IC50 in assay [1] (setting [3]) and in assay [2] (setting [4]) was less than 5 nM in each case.

In the case of `O=C(Nc1c2c(cc3c1CCC3)CCC2)NS(=O)(=O)c1cc2c(o1)CCNC2` [Example 73, N-((1,2,3,5,6,7-hexahydro-s-indacen-4-yl)carbamoyl)-4,5,6,7-tetrahydrofuro[3,2-c]pyridine-2-sulfonamide], the half-inhibitory concentration (IC50) in assay [1] (setting [3]) and in assay [2] (setting [4]) was 5 to 50 nM throughout.

On to `Cc1cc(S(=O)(=O)NC(=O)Nc2c3c(c(F)c4c2CCC4)CCC3)oc1CN(C)CC1(O)CCC1` [Example 50, N-((8-fluoro-1,2,3,5,6,7-hexahydro-s-indacen-4-yl)carbamoyl)-5-((((1-hydroxycyclobutyl)methyl)(methyl)amino)methyl)-4-methylfuran-2-sulfonamide], for which the IC50 in assay [1] (setting [3]) and in assay [2] (setting [4]) was 5 to 50 nM each time.

Regarding `Cc1oc(S(=N)(=O)NC(=O)Nc2c3c(c(F)c4c2CCC4)CCC3)cc1CN(C)CC1(CO)CCC1` (centres unmarked) [Example 13, N-((8-fluoro-1,2,3,5,6,7-hexahydro-s-indacen-4-yl)carbamoyl)-4-((((1-(hydroxymethyl)cyclobutyl)methyl)(methyl)amino)methyl)-5-methylfuran-2-sulfonimidamide], the figures for the IC50 in assay [1] (setting [3]) and in assay [2] (setting [4]) were less than 5 nM and 5 to 50 nM, respectively.

As for `Cc1oc(S(=O)(=O)NC(=O)Nc2c3c(c(F)c4c2CCC4)CCC3)cc1CN(C)CC1(O)CCCC1` [Example 37, N-((8-fluoro-1,2,3,5,6,7-hexahydro-s-indacen-4-yl)carbamoyl)-4-((((1-hydroxycyclopentyl)methyl)(methyl)amino)methyl)-5-methylfuran-2-sulfonamide], the IC50 in assay [1] (setting [3]) was less than 5 nM; in assay [2] (setting [4]), 5 to 50 nM.

For the molecule `Cc1oc(S(=O)(=O)NC(=O)Nc2c3c(c(F)c4c2CCC4)CCC3)cc1CN(C)CC1(O)CCC1` [Example 35, N-((8-fluoro-1,2,3,5,6,7-hexahydro-s-indacen-4-yl)carbamoyl)-4-((((1-hydroxycyclobutyl)methyl)(methyl)amino)methyl)-5-methylfuran-2-sulfonamide], the IC50 in assay [1] (setting [3]) and in assay [2] (setting [4]) was less than 5 nM in each case.

As for `Cc1oc(S(=N)(=O)NC(=O)Nc2c3c(cc4c2CCC4)CCC3)cc1CN(C)CC1(CO)CCOCC1` (centres unmarked) [Example 10, N-((1,2,3,5,6,7-hexahydro-s-indacen-4-yl)carbamoyl)-4-((((4-(hydroxymethyl)tetrahydro-2H-pyran-4-yl)methyl)(methyl)amino)methyl)-5-methylfuran-2-sulfonimidamide], the 50% inhibitory concentration (IC50) in assay [1] (setting [3]) is less than 5 nM; in assay [2] (setting [4]) it was 5 to 50 nM.

For `CC(C)n1nc(S(=N)(=O)NC(=O)Nc2c3c(cc4c2CCC4)CCC3)cc1CN1CCC[C@H]1CO` (stereo partly drawn) [Example 21, N-((1,2,3,5,6,7-hexahydro-s-indacen-4-yl)carbamoyl)-5-(((S)-2-(hydroxymethyl)pyrrolidin-1-yl)methyl)-1-isopropyl-1H-pyrazole-3-sulfonimidamide], the concentration for half-maximal inhibition (IC50) in assay [1] (setting [3]) and in assay [2] (setting [4]) was less than 5 nM throughout.

In the case of `Cn1nc(S(=O)(=O)NC(=O)Nc2c3c(c(F)c4c2CCC4)CCC3)cc1CN1CCC[C@@H]1CO` [Example 63, (R)-N-((8-fluoro-1,2,3,5,6,7-hexahydro-s-indacen-4-yl)carbamoyl)-5-((2-(hydroxymethyl)pyrrolidin-1-yl)methyl)-1-methyl-1 H-pyrazole-3-sulfonamide], the IC50 in assay [1] (setting [3]) and in assay [2] (setting [4]) was 5 to 50 nM each time.

On to `Cc1cc(S(=O)(=O)NC(=O)Nc2c3c(c(F)c4c2CCC4)CCC3)oc1CN1CC[C@H](O)C1` [Example 51, (S)-N-((8-fluoro-1,2,3,5,6,7-hexahydro-s-indacen-4-yl)carbamoyl)-5-((3-hydroxypyrrolidin-1-yl)methyl)-4-methylfuran-2-sulfonamide], for which the results for the IC50 in assay [1] (setting [3]) and in assay [2] (setting [4]) were less than 5 nM and 5 to 50 nM, respectively.

`Cn1nc(S(=O)(=O)NC(=O)Nc2c3c(c(F)c4c2CCC4)CCC3)cc1CN1CC[C@@H](O)C1` [Example 61, (R)-N-((8-fluoro-1,2,3,5,6,7-hexahydro-s-indacen-4-yl)carbamoyl)-5-((3-hydroxypyrrolidin-1-yl)methyl)-1-methyl-1H-pyrazole-3-sulfonamide]: the IC50 in assay [1] (setting [3]) and in assay [2] (setting [4]) was 50 to 500 nM each time.

On to `Cc1oc(S(=N)(=O)NC(=O)Nc2c3c(cc4c2CCC4)CCC3)cc1CN(C)CC1(O)CC1` (centres unmarked) [Example 11, N-((1,2,3,5,6,7-hexahydro-s-indacen-4-yl)carbamoyl)-4-((((1-hydroxycyclopropyl)methyl)(methyl)amino)methyl)-5-methylfuran-2-sulfonimidamide], for which the IC50 in assay [1] (setting [3]) was less than 5 nM; in assay [2] (setting [4]), 5 to 50 nM.

`Cc1oc(S(=N)(=O)NC(=O)Nc2c3c(cc4c2CCC4)CCC3)cc1CN1CC[C@H](CO)C1` (stereo partly drawn) [Example 6, N-((1,2,3,5,6,7-hexahydro-s-indacen-4-yl)carbamoyl)-4-(((S)-3-(hydroxymethyl)pyrrolidin-1-yl)methyl)-5-methylfuran-2-sulfonimidamide]: the IC50 is less than 5 nM in assay [1] (setting [3]) and 5 to 50 nM in assay [2] (setting [4]).

Consider `Cc1oc(S(=N)(=O)NC(=O)Nc2c3c(cc4c2CCC4)CCC3)cc1CN1CC[C@@H](CO)C1` (stereo partly drawn) [Example 5, N-((1,2,3,5,6,7-hexahydro-s-indacen-4-yl)carbamoyl)-4-(((R)-3-(hydroxymethyl)pyrrolidin-1-yl)methyl)-5-methylfuran-2-sulfonimidamide], for which the concentration for half-maximal inhibition (IC50) in assay [1] (setting [3]) and in assay [2] (setting [4]) was less than 5 nM each time.

Consider `O=C(Nc1c2c(cc3c1CCC3)CCC2)NS(=O)(=O)c1cc2c(o1)CCN(CCCO)C2` [Example 74, N-((1,2,3,5,6,7-hexahydro-s-indacen-4-yl)carbamoyl)-5-(3-hydroxypropyl)-4,5,6,7-tetrahydrofuro[3,2-c]pyridine-2-sulfonamide], for which the IC50 in assay [1] (setting [3]) and in assay [2] (setting [4]) was 5 to 50 nM each time.

Usually IC50 stands for the concentration at which inhibition is half-maximal.

The values are drawn from patent US20250388568A1, “NLRP3 INHIBITORS” (Kodiak Sciences Inc., priority 2022, published 2025).
